Measured values: PubChem BioAssay AID192 (DTP/NCI, 2004)
Where “and” joins values, the source holds several entries; their conditions need not be identical. Identical values can stand only once. Toxic doses and inconclusive results are not listed.

System: BDF1 mice, B16 melanoma ip, median survival T/C
Test: NCI In Vivo Anticancer Drug Screen. Data for tumor model B16 Melanoma (intraperitoneal) in B6D2F1 (BDF1) mice
Settings: endpoint: median survival time, higher = longer survival
In short: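 In this screen, activity was judged from survival or tumor size in treated versus vehicle-treated tumor-bearing mice, reported as T/C.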

[1] = dose: 12.5 mg/kg/injection, schedule: Q01DX009 (ip), vehicle: saline with Tween-80
[2] = dose: 25.0 mg/kg/injection, schedule: Q01DX009 (ip), vehicle: saline with Tween-80
[3] = dose: 50.0 mg/kg/injection, schedule: Q01DX009 (ip), vehicle: saline with Tween-80
[4] = dose: 100.0 mg/kg/injection, schedule: Q01DX009 (ip), vehicle: saline with Tween-80
[5] = dose: 12.5 mg/kg/injection, schedule: Q04DX003 (ip), vehicle: Klucel (hydroxypropylcellulose) (HPC)
[6] = dose: 25.0 mg/kg/injection, schedule: Q04DX003 (ip), vehicle: Klucel (hydroxypropylcellulose) (HPC)
[7] = dose: 50.0 mg/kg/injection, schedule: Q04DX003 (ip), vehicle: Klucel (hydroxypropylcellulose) (HPC)
[8] = dose: 100.0 mg/kg/injection, schedule: Q04DX003 (ip), vehicle: Klucel (hydroxypropylcellulose) (HPC)
[9] = dose: 200.0 mg/kg/injection, schedule: Q04DX003 (ip), vehicle: Klucel (hydroxypropylcellulose) (HPC)
[10] = dose: 100.0 mg/kg/injection, schedule: Q01DX009 (ip), vehicle: Klucel (hydroxypropylcellulose) (HPC)
[11] = dose: 200.0 mg/kg/injection, schedule: Q01DX009 (ip), vehicle: Klucel (hydroxypropylcellulose) (HPC)
[12] = dose: 200.0 mg/kg/injection, schedule: Q01DX009 (ip), vehicle: saline with Tween-80
[13] = dose: 400.0 mg/kg/injection, schedule: Q01DX009 (ip), vehicle: saline with Tween-80
[14] = dose: 25.0 mg/kg/injection, schedule: Q01DX009 (ip), vehicle: saline
[15] = dose: 50.0 mg/kg/injection, schedule: Q01DX009 (ip), vehicle: saline
[16] = dose: 100.0 mg/kg/injection, schedule: Q01DX009 (ip), vehicle: saline
[17] = dose: 25.0 mg/kg/injection, schedule: Q01DX009 (ip), vehicle: Klucel (hydroxypropylcellulose) (HPC)

CCOC(=O)C(CC(C)C)NC(=O)C(Cc1ccc(N(CCCl)CCCl)cc1)NC(C)=O (stereo not drawn)
T/C (dose: 1.0 mg/kg/injection, schedule: Q01DX009 (ip), vehicle: saline with Tween-80): 106 % of control | T/C (dose: 2.0 mg/kg/injection, schedule: Q01DX009 (ip), vehicle: saline with Tween-80): 113 % of control | T/C (dose: 4.0 mg/kg/injection, schedule: Q01DX009 (ip), vehicle: saline with Tween-80): 106 % of control | T/C (dose: 8.0 mg/kg/injection, schedule: Q01DX009 (ip), vehicle: saline with Tween-80): 119 % of control | T/C (dose: 8.0 mg/kg/injection, schedule: Q01DX009 (ip), vehicle: saline): 105 % of control | T/C (dose: 16.0 mg/kg/injection, schedule: Q01DX009 (ip), vehicle: saline): 116 % of control

CCC/C=C/C=C/C1CC(O)C(O)C(=O)C1CO (stereo not drawn)
T/C [1]: 102 % of control | T/C [2]: 104 % of control | T/C [3]: 90 % of control | T/C [4]: 95 % of control

O=C(/C(=N\Nc1ccc([N+](=O)[O-])cc1)c1ccccc1)c1ccccc1
T/C (dose: 3.13 mg/kg/injection, schedule: Q01DX009 (ip), vehicle: saline with Tween-80): 100 % of control | T/C (dose: 6.25 mg/kg/injection, schedule: Q01DX009 (ip), vehicle: saline with Tween-80): 95 % of control | T/C [1]: 90 % of control and 93 % of control | T/C [3]: 90 % of control

CCOC(=O)Nc1ccccc1
T/C (dose: 100.0 mg/kg/injection, schedule: Q04DX003 (ip), vehicle: gum acacia): 95 % of control | T/C (dose: 200.0 mg/kg/injection, schedule: Q04DX003 (ip), vehicle: gum acacia): 102 % of control

CN(C)N=Nc1ccnc2c(Br)cccc12
T/C (dose: 14.4 mg/kg/injection, schedule: Q01DX009 (ip), vehicle: DMSO): 90 % of control | T/C (dose: 24.0 mg/kg/injection, schedule: Q01DX009 (ip), vehicle: DMSO): 97 % of control | T/C (dose: 40.0 mg/kg/injection, schedule: Q01DX009 (ip), vehicle: DMSO): 90 % of control | T/C (dose: 66.7 mg/kg/injection, schedule: Q01DX009 (ip), vehicle: DMSO): 101 % of control

CN(C)N=Nc1cn(C)c(=O)n(C)c1=O
T/C [5]: 100 % of control | T/C [6]: 118 % of control | T/C [7]: 103 % of control

CC(=O)CC(C)(C)C1CCCCC1
T/C (dose: 12.5 mg/kg/injection, schedule: Q01DX009 (ip), vehicle: water): 107 % of control | T/C (dose: 25.0 mg/kg/injection, schedule: Q01DX009 (ip), vehicle: water): 98 % of control | T/C (dose: 50.0 mg/kg/injection, schedule: Q01DX009 (ip), vehicle: water): 95 % of control | T/C (dose: 100.0 mg/kg/injection, schedule: Q01DX009 (ip), vehicle: water): 102 % of control | T/C (dose: 200.0 mg/kg/injection, schedule: Q01DX009 (ip), vehicle: water): 88 % of control

COc1cc(C(=O)CC(O)(C(F)(F)F)C(F)(F)F)cc(OC)c1OC
T/C [7]: 100 % of control | T/C [8]: 110 % of control | T/C [9]: 97 % of control

Nc1nccnc1N
T/C [3]: 102 % of control | T/C [4]: 88 % of control

CCC(=O)c1ccccc1NC(C)=O
T/C [10]: 102 % of control | T/C [11]: 98 % of control | T/C (dose: 400.0 mg/kg/injection, schedule: Q01DX009 (ip), vehicle: Klucel (hydroxypropylcellulose) (HPC)): 97 % of control

Cc1ccc2no[n+]([O-])c2c1[N+](=O)[O-]
T/C [2]: 93 % of control | T/C [3]: 97 % of control | T/C [4]: 98 % of control

CC(C)CC(NC(=O)OCc1ccccc1)C(=O)NC(Cc1c[nH]c2ccccc12)C(=O)O (stereo not drawn)
T/C [3]: 90 % of control | T/C [4]: 96 % of control | T/C [12]: 96 % of control | T/C [13]: 98 % of control

Oc1ccc2ccccc2c1N=Nc1ccc(F)cc1
T/C [4]: 119 % of control | T/C [13]: 108 % of control

Cc1cn(C2CC(F)C(CO)O2)c(=O)[nH]c1=O (stereo not drawn)
T/C (dose: 6.25 mg/kg/injection, schedule: Q01DX009 (ip), vehicle: saline): 108 % of control | T/C (dose: 12.5 mg/kg/injection, schedule: Q01DX009 (ip), vehicle: saline): 103 % of control | T/C [14]: 110 % of control | T/C [15]: 115 % of control | T/C [16]: 97 % of control

Oc1cc(N2CC2)c(O)cc1N1CC1
T/C (dose: 0.22 mg/kg/injection, schedule: Q01DX009 (ip), vehicle: saline): 123 % of control | T/C (dose: 0.44 mg/kg/injection, schedule: Q01DX009 (ip), vehicle: saline): 188 % of control | T/C (dose: 0.68 mg/kg/injection, schedule: Q01DX009 (ip), vehicle: saline): 156 % of control and 159 % of control

O=[N+]([O-])c1ccc(S(=O)(=O)N/N=C\c2ccc(Cl)c(Cl)c2)cc1
T/C [1]: 109 % of control | T/C [2]: 114 % of control | T/C [3]: 112 % of control

ClC(Cl)(Cl)C(Nc1ccccc1)Nc1ccccc1
T/C (dose: 6.25 mg/kg/injection, schedule: Q01DX009 (ip), vehicle: Klucel (hydroxypropylcellulose) (HPC)): 89 % of control | T/C [17]: 86 % of control

Nc1ccc(S(=O)(=O)CCCl)cc1
T/C [5]: 100 % of control | T/C [6]: 105 % of control | T/C [9]: 99 % of control

CCC(CC)N=C(N)N
T/C [14]: 101 % of control | T/C [15]: 98 % of control | T/C [16]: 112 % of control

COc1cc2c(cc1OC)C(CCc1ccc(Cl)cc1)N(C)CC2 (stereo not drawn)
T/C [17]: 88 % of control | T/C (dose: 50.0 mg/kg/injection, schedule: Q01DX009 (ip), vehicle: Klucel (hydroxypropylcellulose) (HPC)): 93 % of control | T/C [10]: 98 % of control | T/C [11]: 93 % of control

Cc1ccc2c(c1)n([O-])c1cc(Cl)ccc1[n+]2=O
T/C [1]: 115 % of control | T/C [4]: 122 % of control

COc1ccc2c(c1)C(=O)CCN2
T/C [8]: 114 % of control | T/C [9]: 107 % of control | T/C (dose: 400.0 mg/kg/injection, schedule: Q04DX003 (ip), vehicle: Klucel (hydroxypropylcellulose) (HPC)): 99 % of control

N#CCCSC(=S)C1CCCC1=N (stereo not drawn)
T/C [1]: 112 % of control | T/C [2]: 106 % of control | T/C [3]: 103 % of control | T/C [4]: 103 % of control | T/C [12]: 108 % of control

OC(C1CO1)C(O)C1CO1 (stereo not drawn)
T/C (dose: 0.12 mg/kg/injection, schedule: Q01DX009 (ip), vehicle: saline): 118 % of control | T/C (dose: 0.13 mg/kg/injection, schedule: Q03HX024 (ip), vehicle: saline): 114 % of control | T/C (dose: 0.25 mg/kg/injection, schedule: Q01DX009 (ip), vehicle: saline): 104 % of control and 107 % of control and 110 % of control | T/C (dose: 0.25 mg/kg/injection, schedule: Q03HX008 (ip), vehicle: saline): 123 % of control | T/C (dose: 0.25 mg/kg/injection, schedule: Q03HX016 (ip), vehicle: saline): 120 % of control | T/C (dose: 0.5 mg/kg/injection, schedule: Q01DX005 (ip), vehicle: saline): 113 % of control | T/C (dose: 0.5 mg/kg/injection, schedule: Q03HX008 (ip), vehicle: saline): 120 % of control | T/C (dose: 1.0 mg/kg/injection, schedule: Q01DX005 (ip), vehicle: saline): 119 % of control | T/C (dose: 1.0 mg/kg/injection, schedule: Q03HX016 (ip), vehicle: saline): 152 % of control | T/C (dose: 1.0 mg/kg/injection, schedule: Q03HX024 (ip), vehicle: saline): 172 % of control | T/C (dose: 2.0 mg/kg/injection, schedule: Q01DX005 (ip), vehicle: saline): 153 % of control | T/C (dose: 2.0 mg/kg/injection, schedule: Q03HX008 (ip), vehicle: saline): 160 % of control | T/C (dose: 2.0 mg/kg/injection, schedule: Q03HX016 (ip), vehicle: saline): 214 % of control | T/C (dose: 4.0 mg/kg/injection, schedule: Q01DX001 (ip), vehicle: saline): 158 % of control | T/C (dose: 4.0 mg/kg/injection, schedule: Q01DX005 (ip), vehicle: saline): 192 % of control | T/C (dose: 4.0 mg/kg/injection, schedule: Q01DX009 (ip), vehicle: saline sonified): 184 % of control | T/C (dose: 4.0 mg/kg/injection, schedule: Q08DX002 (ip), vehicle: saline): 158 % of control | T/C (dose: 8.0 mg/kg/injection, schedule: Q01DX001 (ip), vehicle: saline): 204 % of control | T/C (dose: 8.0 mg/kg/injection, schedule: Q04DX003 (ip), vehicle: saline): 171 % of control | T/C (dose: 8.0 mg/kg/injection, schedule: Q08DX002 (ip), vehicle: saline): 208 % of control
